Measured values reported in ChEMBL document CHEMBL2401681 (Bioorg Med Chem Lett, 2013).

Columns and labels:
[1] = molecular target: T1, Estrogen receptor (Homo sapiens) (UniProt P03372); conditions: at 3 µM
T1 sequence (whole entry): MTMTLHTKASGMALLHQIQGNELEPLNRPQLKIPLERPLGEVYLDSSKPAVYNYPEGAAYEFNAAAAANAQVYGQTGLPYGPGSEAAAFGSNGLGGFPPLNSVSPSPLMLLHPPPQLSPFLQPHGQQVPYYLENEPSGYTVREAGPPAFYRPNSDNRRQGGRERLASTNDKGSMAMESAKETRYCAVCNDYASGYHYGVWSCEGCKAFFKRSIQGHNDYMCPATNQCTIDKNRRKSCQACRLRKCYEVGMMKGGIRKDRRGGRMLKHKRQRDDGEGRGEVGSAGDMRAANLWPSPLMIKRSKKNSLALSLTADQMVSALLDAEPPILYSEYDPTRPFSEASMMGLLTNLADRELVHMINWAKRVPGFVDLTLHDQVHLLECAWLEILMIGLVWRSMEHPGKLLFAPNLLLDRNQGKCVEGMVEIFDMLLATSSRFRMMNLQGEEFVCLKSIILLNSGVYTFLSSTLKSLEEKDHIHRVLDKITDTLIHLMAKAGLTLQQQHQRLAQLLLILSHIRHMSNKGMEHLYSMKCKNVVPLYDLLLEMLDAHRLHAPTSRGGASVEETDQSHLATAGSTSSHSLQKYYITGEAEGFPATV
Description: Antagonist activity at human Gal4-ERalpha assessed as inhibition of 17beta-estradiol-induced effect at 3 uM by reporter gene assay

Estrogen receptor beta [2] = molecular target: T2, Estrogen receptor beta (Homo sapiens, UniProt Q92731); conditions: at 3 µM
T2 sequence (Q92731 whole entry, the tested form may be a part): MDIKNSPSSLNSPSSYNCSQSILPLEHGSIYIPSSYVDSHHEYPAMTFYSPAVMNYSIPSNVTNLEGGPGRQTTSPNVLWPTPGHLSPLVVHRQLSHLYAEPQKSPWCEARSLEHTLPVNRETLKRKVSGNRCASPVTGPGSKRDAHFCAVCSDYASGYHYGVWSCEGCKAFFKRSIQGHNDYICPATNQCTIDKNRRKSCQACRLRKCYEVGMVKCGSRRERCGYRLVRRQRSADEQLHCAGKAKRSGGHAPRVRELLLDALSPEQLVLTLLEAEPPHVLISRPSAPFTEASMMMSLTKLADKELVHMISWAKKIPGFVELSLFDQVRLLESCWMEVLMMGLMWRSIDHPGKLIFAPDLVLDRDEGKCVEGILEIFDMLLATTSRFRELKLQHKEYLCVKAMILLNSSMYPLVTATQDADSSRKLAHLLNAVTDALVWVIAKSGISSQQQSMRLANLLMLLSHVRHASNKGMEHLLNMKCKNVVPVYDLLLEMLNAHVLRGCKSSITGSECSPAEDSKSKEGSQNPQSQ
Description: Antagonist activity at human Gal4-ERbeta assessed as inhibition of 17beta-estradiol-induced effect at 3 uM by reporter gene assay

[3] = molecular target: T1, Estrogen receptor (Homo sapiens); assay: Agonist activity at human Gal4-ERalpha at 10 uM by reporter gene assay relative to 17beta-estradiol
Estrogen receptor [4] = molecular target: T3, Estrogen receptor (Homo sapiens, UniProt P03372); assay: Antagonist activity at human Gal4-ERalpha assessed as inhibition of 17beta-estradiol-induced effect by reporter gene assay
T3 sequence (P03372 whole entry): T1 sequence (whole entry)

Estrogen receptor [5] = molecular target: T3, Estrogen receptor; assay: Agonist activity at human Gal4-ERalpha by reporter gene assay
Estrogen receptor beta [6] = molecular target: T2, Estrogen receptor beta; assay: Antagonist activity at human Gal4-ERbeta assessed as inhibition of 17beta-estradiol-induced effect by reporter gene assay
Androgen receptor = molecular target: T4, Androgen receptor (Homo sapiens, UniProt P10275); assay: Antagonist activity at human pSG5-AR assessed as inhibition of dihydrotestosterone-induced effect by reporter gene assay
T4 sequence (P10275 whole entry): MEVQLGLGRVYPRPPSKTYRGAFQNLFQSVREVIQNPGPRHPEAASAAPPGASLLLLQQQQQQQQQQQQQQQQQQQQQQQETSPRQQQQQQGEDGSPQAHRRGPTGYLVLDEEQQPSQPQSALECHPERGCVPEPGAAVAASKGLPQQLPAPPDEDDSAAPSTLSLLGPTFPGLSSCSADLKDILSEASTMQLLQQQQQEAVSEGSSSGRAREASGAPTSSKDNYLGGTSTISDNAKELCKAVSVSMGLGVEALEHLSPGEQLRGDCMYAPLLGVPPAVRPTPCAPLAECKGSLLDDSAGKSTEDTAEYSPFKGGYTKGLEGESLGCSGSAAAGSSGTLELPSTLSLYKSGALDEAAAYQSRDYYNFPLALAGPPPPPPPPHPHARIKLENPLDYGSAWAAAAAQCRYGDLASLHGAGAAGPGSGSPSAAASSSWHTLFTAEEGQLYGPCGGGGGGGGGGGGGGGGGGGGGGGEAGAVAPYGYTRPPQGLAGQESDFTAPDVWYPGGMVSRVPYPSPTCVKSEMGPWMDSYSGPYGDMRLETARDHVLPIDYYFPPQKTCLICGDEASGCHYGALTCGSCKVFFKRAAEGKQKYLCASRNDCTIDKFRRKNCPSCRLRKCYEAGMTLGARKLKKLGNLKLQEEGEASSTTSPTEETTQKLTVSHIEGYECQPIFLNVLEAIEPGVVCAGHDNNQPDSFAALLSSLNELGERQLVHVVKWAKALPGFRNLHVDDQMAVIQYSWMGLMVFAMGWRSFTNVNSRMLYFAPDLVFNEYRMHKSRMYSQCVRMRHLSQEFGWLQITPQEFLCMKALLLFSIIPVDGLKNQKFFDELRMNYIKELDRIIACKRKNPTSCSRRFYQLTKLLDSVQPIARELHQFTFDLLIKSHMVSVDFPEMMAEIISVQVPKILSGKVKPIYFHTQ

Estrogen receptor beta [7] = molecular target: T2, Estrogen receptor beta; assay: Agonist activity at human Gal4-ERbeta by reporter gene assay

| Compound | IC50 (Estrogen receptor [4]) | EC50 (Estrogen receptor [5]) | IC50 (Estrogen receptor beta [6]; read-out: IC50) | EC50 (Estrogen receptor beta [7]) | further results |
| --- | --- | --- | --- | --- | --- |
| Cc1cc(C(C)(C)c2ccc(O)cc2)ccc1O |  |  |  |  | inhibition [1]: 48%; inhibition (Estrogen receptor beta [2]): 26%; Activity [3]: 26% |
| CCCC(CCC)(c1ccc(O)cc1)c1ccc(O)cc1 | 99 nM | Not Active | 2200 nM |  |  |
| CCC(CC)(c1ccc(O)cc1)c1ccc(O)c(C)c1 | 110 nM | Not Active | 380 nM |  |  |
| CCCC[Si](CCCC)(c1ccc(O)c(C)c1)c1ccc(O)c(C)c1 |  | Not Active |  | Not Active | IC50 (Androgen receptor): 8200 nM; IC50 (Estrogen receptor beta [6]): Not Active |
| CCC(CC)(c1ccc(O)c(C)c1)c1ccc(O)c(C)c1 | 25 nM | Not Active | 260 nM |  | IC50 (Androgen receptor): 4500 nM |
| CCC(CC)(c1ccc(N)c(C)c1)c1ccc(O)c(C)c1 | 98 nM | Not Active | 43 nM | Not Active | IC50 (Androgen receptor): 5400 nM |
| CCC(CC)(c1cc(C)c(O)c(C)c1)c1cc(C)c(O)c(C)c1 | 74 nM | Not Active | 300 nM | Not Active |  |
| CCCc1cc(C(CCC)(CCC)c2ccc(O)c(CCC)c2)ccc1O |  | Not Active |  | Not Active |  |
| Cc1cc(C2(c3ccc(O)c(C)c3)CCCC2)ccc1O | 84 nM | Not Active | 770 nM | Not Active |  |
| CCCC(CCC)(c1ccc(O)c(C)c1)c1ccc(O)c(C)c1 | 4.9 nM | Not Active | 140 nM | Not Active | IC50 (Androgen receptor): 25000 nM |
| CCCCC(CCCC)(c1ccc(O)c(CCC)c1)c1ccc(O)c(CCC)c1 |  | Not Active |  | Not Active |  |
| CCCCC(CCCC)(c1ccc(O)cc1)c1ccc(O)cc1 | 79 nM | Not Active | 180 nM | Not Active |  |
| Oc1ccc(C2(c3ccc(O)cc3)CCCCC2)cc1 | 520 nM | Not Active | 560 nM | Not Active |  |
| Oc1ccc(Cc2ccc(O)cc2)cc1 |  |  |  |  | inhibition [1]: 35%; EC50 (Estrogen receptor [5]; read-out: EC50): 910 nM; inhibition (Estrogen receptor beta [2]): 24%; EC50 (Estrogen receptor beta [7]; read-out: EC50): 1900 nM |
| CCCc1cc(C(CC)(CC)c2ccc(O)c(CCC)c2)ccc1O |  | Not Active |  | Not Active |  |
| CC[Si](CC)(c1ccc(O)c(C)c1)c1ccc(O)c(C)c1 | 72 nM | Not Active | 800 nM | Not Active | IC50 (Androgen receptor): 1900 nM |
| CCCCC(CCCC)(c1ccc(O)c(CC)c1)c1ccc(O)c(CC)c1 | 2900 nM | Not Active | 4500 nM | Not Active |  |
| CC(C)(c1ccc(O)cc1)c1ccc(O)cc1 [BISPHENOL A] |  |  |  |  | inhibition [1]: 38%; IC50 (Androgen receptor): 5900 nM; inhibition (Estrogen receptor beta [2]): 25%; Activity [3]: 33% |
| CCc1cc(C(CC)(CC)c2ccc(O)c(CC)c2)ccc1O | 230 nM | Not Active | 1300 nM | Not Active |  |
| CCCCC(CCCC)(c1ccc(O)c(C)c1)c1ccc(O)c(C)c1 | 14 nM | Not Active | 150 nM | Not Active |  |
| CCCC(CCC)(c1ccc(O)c(CC)c1)c1ccc(O)c(CC)c1 | 490 nM | Not Active | 2600 nM | Not Active |  |
| Oc1ccc(C2(c3ccc(O)cc3)CCCC2)cc1 | 170 nM | Not Active | 270 nM | Not Active |  |
| CCC(CC)(c1ccc(O)cc1)c1ccc(O)cc1 | 86 nM | Not Active | 93 nM |  |  |
| Cc1cc(Cc2ccc(O)c(C)c2)ccc1O |  |  |  |  | inhibition [1]: 26%; IC50 (Estrogen receptor beta [6]): Not Active; EC50 (Estrogen receptor beta [7]; read-out: EC50): 5500 nM; Activity [3]: 23% |
| Cc1cc(C(C)(C)c2ccc(O)c(C)c2)ccc1O |  |  |  |  | Activity [3]: 31% |
| Cc1cc(C2(c3ccc(O)c(C)c3)CCCCC2)ccc1O | 230 nM | Not Active | 790 nM | Not Active |  |
